Assay results from ChEMBL document CHEMBL3885881, “DrugMatrix”.

Species: Rattus norvegicus
Test: DrugMatrix - Regimen: Daily Repeat
Format: toxicity, organism-based, Sprague-Dawley
Set-up: regimen Daily Repeat, gender Male, age 6-8 weeks
Conditions: in vivo, ip, 0 mg/kg, route intraperitoneal, dose level Control, vehicle 100 % SALINE; for ABSOLUTE BASOPHIL / ABSOLUTE EOSINOPHIL / ABSOLUTE LYMPHOCYTE / ABSOLUTE MONOCYTE / ABSOLUTE SEGMENTED NEUTROPHIL / BASOPHIL / EOSINOPHIL / ERYTHROCYTE COUNT / HEMATOCRIT / HEMOGLOBIN / LEUKOCYTE COUNT / LYMPHOCYTE / MEAN CORPUSCULAR HEMOGLOBIN / MEAN CORPUSCULAR HEMOGLOBIN CONCENTRATION / MEAN CORPUSCULAR VOLUME / MONOCYTE / NEUTROPHIL / NUCLEATED RED BLOOD CELLS / PLATELET COUNT: tissue Blood; for ALANINE AMINOTRANSFERASE / ALKALINE PHOSPHATASE / ASPARTATE AMINOTRANSFERASE / BLOOD UREA NITROGEN / CARBON DIOXIDE / CHLORIDE / CHOLESTEROL / CREATININE / GLUCOSE / LACTATE DEHYDROGENASE / LIPASE / PHOSPHORUS / POTASSIUM / SODIUM / TOTAL BILIRUBIN / TOTAL PROTEIN / URIC ACID: tissue Plasma

CC[C@H]1CN2CCc3cc(OC)c(OC)cc3[C@@H]2C[C@@H]1C[C@H]1NCCc2cc(OC)c(OC)cc21 [EMETINE]
ABSOLUTE BASOPHIL (72 h, time 3 day): 0 CELLS/uL | ABSOLUTE EOSINOPHIL (72 h, time 3 day): 109.67 CELLS/uL | ABSOLUTE LYMPHOCYTE (72 h, time 3 day): 11168.33 CELLS/uL | ABSOLUTE MONOCYTE (72 h, time 3 day): 226.17 CELLS/uL | ABSOLUTE SEGMENTED NEUTROPHIL (72 h, time 3 day): 695.83 CELLS/uL | BASOPHIL (72 h, time 3 day): 0% | EOSINOPHIL (72 h, time 3 day): 0.83% | ERYTHROCYTE COUNT (72 h, time 3 day): 6.2 x10E6/uL | HEMATOCRIT (72 h, time 3 day): 37.68% | HEMOGLOBIN (72 h, time 3 day): 13.67 G/DL | LEUKOCYTE COUNT (72 h, time 3 day): 12.2 x10E3/uL | LYMPHOCYTE (72 h, time 3 day): 91.83% | MEAN CORPUSCULAR HEMOGLOBIN (72 h, time 3 day): 22.08 pg | MEAN CORPUSCULAR HEMOGLOBIN CONCENTRATION (72 h, time 3 day): 36.3 G/DL | MEAN CORPUSCULAR VOLUME (72 h, time 3 day): 60.77 fL | MONOCYTE (72 h, time 3 day): 1.83% | NEUTROPHIL (72 h, time 3 day): 5.5% | NUCLEATED RED BLOOD CELLS (72 h, time 3 day): 0 /100WBC | PLATELET COUNT (72 h, time 3 day): 755.67 x10E3/uL | ALANINE AMINOTRANSFERASE (72 h, time 3 day): 60.83 u/L | ALKALINE PHOSPHATASE (72 h, time 3 day): 392.5 u/L | ASPARTATE AMINOTRANSFERASE (72 h, time 3 day): 97 u/L | BLOOD UREA NITROGEN (72 h, time 3 day): 16.5 mg/dL | CARBON DIOXIDE (72 h, time 3 day): 29.83 mmol/L | CHLORIDE (72 h, time 3 day): 101.83 MEQ/L | CHOLESTEROL (72 h, time 3 day): 72.5 mg/dL | CREATININE (72 h, time 3 day): 0.28 mg/dL | GLUCOSE (72 h, time 3 day): 195.33 mg/dL | LACTATE DEHYDROGENASE (72 h, time 3 day): 240.33 u/L | LIPASE (72 h, time 3 day): 9.67 u/L | PHOSPHORUS (72 h, time 3 day): 12.47 mg/dL | POTASSIUM (72 h, time 3 day): 6.15 MEQ/L | SODIUM (72 h, time 3 day): 145.38 MEQ/L | TOTAL BILIRUBIN (72 h, time 3 day): 0.17 mg/dL | TOTAL PROTEIN (72 h, time 3 day): 6.7 G/DL | URIC ACID (72 h, time 3 day): 2.42 mg/dL | ABSOLUTE BASOPHIL (120 h, time 5 day): 0 CELLS/uL | ABSOLUTE EOSINOPHIL (120 h, time 5 day): 50 CELLS/uL | ABSOLUTE LYMPHOCYTE (120 h, time 5 day): 12777 CELLS/uL | ABSOLUTE MONOCYTE (120 h, time 5 day): 280.67 CELLS/uL | ABSOLUTE SEGMENTED NEUTROPHIL (120 h, time 5 day): 875.67 CELLS/uL | BASOPHIL (120 h, time 5 day): 0% | EOSINOPHIL (120 h, time 5 day): 0.5% | ERYTHROCYTE COUNT (120 h, time 5 day): 6.42 x10E6/uL | HEMATOCRIT (120 h, time 5 day): 39.13% | HEMOGLOBIN (120 h, time 5 day): 14.17 G/DL | LEUKOCYTE COUNT (120 h, time 5 day): 13.98 x10E3/uL | LYMPHOCYTE (120 h, time 5 day): 90.83% | MEAN CORPUSCULAR HEMOGLOBIN (120 h, time 5 day): 22.1 pg | MEAN CORPUSCULAR HEMOGLOBIN CONCENTRATION (120 h, time 5 day): 36.2 G/DL | MEAN CORPUSCULAR VOLUME (120 h, time 5 day): 61.07 fL | MONOCYTE (120 h, time 5 day): 2% | NEUTROPHIL (120 h, time 5 day): 6.67% | NUCLEATED RED BLOOD CELLS (120 h, time 5 day): 0 /100WBC | PLATELET COUNT (120 h, time 5 day): 838.67 x10E3/uL | ALANINE AMINOTRANSFERASE (120 h, time 5 day): 56.5 u/L | ALKALINE PHOSPHATASE (120 h, time 5 day): 316.5 u/L | ASPARTATE AMINOTRANSFERASE (120 h, time 5 day): 131 u/L | BLOOD UREA NITROGEN (120 h, time 5 day): 14.33 mg/dL | CARBON DIOXIDE (120 h, time 5 day): 29.83 mmol/L | CHLORIDE (120 h, time 5 day): 100.5 MEQ/L | CHOLESTEROL (120 h, time 5 day): 65.83 mg/dL | CREATININE (120 h, time 5 day): 0.23 mg/dL | GLUCOSE (120 h, time 5 day): 268.83 mg/dL | LACTATE DEHYDROGENASE (120 h, time 5 day): 343 u/L | LIPASE (120 h, time 5 day): 9.33 u/L | PHOSPHORUS (120 h, time 5 day): 13.95 mg/dL | POTASSIUM (120 h, time 5 day): 5.37 MEQ/L | SODIUM (120 h, time 5 day): 146.53 MEQ/L | TOTAL BILIRUBIN (120 h, time 5 day): 0.12 mg/dL | TOTAL PROTEIN (120 h, time 5 day): 6.37 G/DL | URIC ACID (120 h, time 5 day): 1.97 mg/dL | ABSOLUTE BASOPHIL ([…], time 14 day): 0 CELLS/uL | ABSOLUTE EOSINOPHIL ([…], time 14 day): 111.67 CELLS/uL | ABSOLUTE LYMPHOCYTE ([…], time 14 day): 12370.33 CELLS/uL | ABSOLUTE MONOCYTE ([…], time 14 day): 653.33 CELLS/uL | ABSOLUTE SEGMENTED NEUTROPHIL ([…], time 14 day): 1414.67 CELLS/uL | BASOPHIL ([…], time 14 day): 0% | EOSINOPHIL ([…], time 14 day): 0.67% | ERYTHROCYTE COUNT ([…], time 14 day): 6.03 x10E6/uL | HEMATOCRIT ([…], time 14 day): 36.65% | HEMOGLOBIN ([…], time 14 day): 13.4 G/DL | LEUKOCYTE COUNT ([…], time 14 day): 14.55 x10E3/uL | LYMPHOCYTE ([…], time 14 day): 85.33% | MEAN CORPUSCULAR HEMOGLOBIN ([…], time 14 day): 22.27 pg | MEAN CORPUSCULAR HEMOGLOBIN CONCENTRATION ([…], time 14 day): 36.58 G/DL | MEAN CORPUSCULAR VOLUME ([…], time 14 day): 60.85 fL | MONOCYTE ([…], time 14 day): 4.5% | NEUTROPHIL ([…], time 14 day): 9.5% | NUCLEATED RED BLOOD CELLS ([…], time 14 day): 0 /100WBC | PLATELET COUNT ([…], time 14 day): 942 x10E3/uL | ALANINE AMINOTRANSFERASE ([…], time 14 day): 53.33 u/L | ALKALINE PHOSPHATASE ([…], time 14 day): 293.67 u/L | ASPARTATE AMINOTRANSFERASE ([…], time 14 day): 96.83 u/L | BLOOD UREA NITROGEN ([…], time 14 day): 15.5 mg/dL | CARBON DIOXIDE ([…], time 14 day): 32.17 mmol/L | CHLORIDE ([…], time 14 day): 101.33 MEQ/L | CHOLESTEROL ([…], time 14 day): 64 mg/dL | CREATININE ([…], time 14 day): 0.25 mg/dL | GLUCOSE ([…], time 14 day): 178.67 mg/dL | LACTATE DEHYDROGENASE ([…], time 14 day): 179.5 u/L | LIPASE ([…], time 14 day): 9.17 u/L | PHOSPHORUS ([…], time 14 day): 10.88 mg/dL | POTASSIUM ([…], time 14 day): 5.91 MEQ/L | SODIUM ([…], time 14 day): 145.68 MEQ/L | TOTAL BILIRUBIN ([…], time 14 day): 0.2 mg/dL | TOTAL PROTEIN ([…], time 14 day): 6.38 G/DL | URIC ACID ([…], time 14 day): 1.12 mg/dL
